Measured values reported in patent publication US10709714B2 (CL BioSciences LLC, priority 2013, dated 2020).

System: ovariectomized CD-1 mice
Assay: Bone histomorphometry, Model 1 mouse OVX
Format: in vivo
Settings: OVX CD-1 mice; GA single s.c.; 8 weeks
Description: Patterns of bone mineralization (BM: decreased), resorption cavities (RC: increased) and osteoclasts (stained multinuclear cells (two arrows): increased) were affected by OVX. These effects were reversed by drug treatment. In one aspect, this means that targeting CCK2 receptors normalizes bone morphology irrespective of low estrogen levels.
Gastrin-antagonist treatment reversed these phenomena (FIG. 45).

SMILES: CNc1cccc(NC(=O)N[C@@H]2N=C(c3ccccn3)c3ccccc3N(CC(=O)C(C)(C)C)C2=O)c1 [YF476, netazepide]
- effect on OVX changes in bone mineralization, resorption cavities and TRAP-positive osteoclasts: reversed
